What was measured:
p53-Y220C DBD = target: T1, p53-Y220C DBD (Homo sapiens, UniProt P04637, M133L/N239Y/N268D/V203A/Y220C); experiment: Protein arylation by ESI mass spectrometry; assay type: binding
T1 construct: (residues 94-312); 6xHis/lipoyl domain/TEV protease cleavage site (N, cleaved yes); made in house; host or cells: E. coli C41
Procedure: In mass spectrometry experiments, we incubated 50 μM purified p53-Y220C DBD in KPi buffer at varying pH’s (6.0–8.0), temperatures (0 and 20 °C), and equivalents of 2-SPs (20–100). Representative 2-SPs were selected to span a broad reactivity range to determine whether trends observed in GSH in vitro assays translate to relative rates of modification of solvent exposed cysteines in folded proteins. […] The same could also be achieved with only 20 equiv of reagent by increasing the temperature to 20 °C, or raising the pH to 8.0. This is an important result because late-stage protein functionalization with bromo- and iodo-(hetero)aromatic motifs is challenging and inaccessible by metal-catalyzed arylation methodologies due to dehalogenation and/or off-target specificity. The introduction of an iodo-(hetero)aromatic motif on the protein surface facilitates drastically the crystal structure resolution with a sharp variation of density. […] Overall, we observed good correlation between GSH and protein experiments.
Figure 4 Biophysical and structural characterization of protein cysteine arylation by 2-SPs. […] Stoichiometry, reaction time/temperature, and pH are indicated in each case. X axis: m/z (Da). Y axis: normalized intensities as a percentage of the most intense peak. Middle: Structure of the modified Y220C mutant (green) superimposed onto the structure of the unmodified protein (gray, PDB entry 6SHZ)[40] showing the region around modified C182 (E) and C277 (F). Hydrogen bonds formed by the pyrimidine are highlighted as dashed yellow lines. 2Fo – Fc electron density maps are shown at a contour level of 1.3σ for segments of chain B including the modified residues C182 and C277. Bottom (F): Protein thermal stability (ΔTm, °C) of p53-Y220C, β-catenin ARD. and FGE, determined by DSF in the presence of 100 μM 2-SP derivatives. […]

[1] = NACME arylation rate constant (NMR); assay type: physicochemical
Excerpt: We employed nuclear magnetic resonance (NMR) and UV–vis to quantify the reactivity of our 2-SP derivatives and other representative electrophiles (Figure 2) against cysteine. NMR allowed straightforward determination of reaction rate constants through dual monitoring of the consumption of the warhead and formation of the product by integration of their respective NMR signals (Figures S1–S3). It simultaneously provided a direct readout on reaction specificity and hydrolytic stability of the warhead. All measurements were carried out in KPi buffer in the presence of 5% d^6-dmso, which is generally well-tolerated by a wide range of proteins in in vitro studies. N-acetylcysteine methylester (NACME) and L-glutathione (GSH) are useful model cysteine nucleophiles for in vitro studies of electrophilic agents.[32] Mixing reference electrophile 2-methylsulfonylpyrimidine (4q) with NACME or GSH in a 1:10 ratio (pseudo-first-order conditions) allowed extraction of accurate and reproducible second order rate constants (k). At pH 7.0, quantitative arylation of NACME occurred […] (k ≈ 4.5 × 10^–2 M^–1 s^–1), whereas GSH reacted approximately 3 times slower (k ≈ 1.6 × 10^–2 M^–1 s^–1; Figures S1–S3). […]
transferred to the NMR instrument for acquisition. 1H spectra (16 scans) were recorded every 10 minutes under water suppression conditions. Following acquisition, spectra were analysed using […]

CS(=O)(=O)c1ncc(I)cn1 [4u]
protein arylation by ESI-MS (in words) (p53-Y220C DBD; 100 equiv, 0 °C, pH 7.2): completely selective double arylation

CS(=O)(=O)c1ncccn1 [4q, 2-methylsulfonylpyrimidine]
times faster at pH 7.0 vs 6.5 ([1]; NACME): approximately 5 times
second order rate constant k with NACME ([1]; pH 7.0, 1:10 ratio): ≈ 4.5 × 10^–2 M^–1 s^–1

CS(=O)(=O)c1ncc(Br)cn1 [4t]
protein arylation by ESI-MS (in words) (p53-Y220C DBD; 100 equiv, 0 °C, pH 7.2): completely selective double arylation
time to selective double arylation (p53-Y220C DBD; 100 equiv, 0 °C, pH 7.2): 2.5 h

Cc1cc(C)nc(S(C)(=O)=O)n1 [4a]
protein modification by ESI-MS (in words) (p53-Y220C DBD; 50 μM protein, all conditions tested, even after 4 h at 20 °C): could not detect any protein modification

From paper PMC10515483, “Structure–Reactivity Studies of 2-Sulfonylpyrimidines Allow Selective Protein Arylation” (Bioconjugate Chemistry, 2023)
